Source: publication PMC4078735 (Journal of biomolecular screening, 2013)
Counter-ions that a name gives are not always drawn.

Legend:
[1] = PAMPA; for Permeability (Log Pe, cm/sec) Porcine polar brain lipid (PBL): pig, pH 7.4
[2] = PAMPA
[3] = PAMPA; for Permeability (Log Pe, cm/sec) Microvessel lipid + cholesterol (MVLC): pH 7.4
[4] = PAMPA; remark: listed apart in the source
[5] = in vitro; conditions: PAMPA, pH 7.4
[6] = in vitro; conditions: PAMPA, pH 7.4; remark: listed apart in the source

Structure (SMILES): CCC(=O)C(CC(C)N(C)C)(c1ccccc1)c1ccccc1 (racemic) [Methadone, (±) methadone HCl]
- Permeability (Log Pe, cm/sec) Porcine polar brain lipid (PBL) [1]: −0.37 ± 0.07 cm/sec
- Permeability (Log Pe, cm/sec) Dodecane ([2]; pH 7.4): −1.54 ± 0.05 cm/sec

Structure (SMILES): Cc1nnc2n1-c1ccc(Cl)cc1C(c1ccccc1)=NC2 [Alprazolam, alprazolam]
- Permeability in the PBL model (in words) [1]: highly permeability
- Permeability in the MVLC model (in words) [3]: highly permeability
- Permeability in the MVL model (in words) [4]: highly permeability

Structure (SMILES): CO[C@]12CC[C@@]3(C[C@@H]1[C@](C)(O)C(C)(C)C)[C@H]1Cc4ccc(O[C@@H]5O[C@H](C(=O)O)[C@@H](O)[C@H](O)[C@H]5O)c5c4[C@@]3(CCN1CC1CC1)[C@H]2O5 [Buprenorphine glucuronide, buprenorphine-3-β-D-glucuronide]
- Permeability (Log Pe, cm/sec) Microvessel lipid + cholesterol (MVLC) [3]: −3.27 ± 0.21 cm/sec

Structure (SMILES): Cn1c(=O)c2c(ncn2C)n(C)c1=O [Caffeine, caffeine]
- Papp at 2 h, 2 µM [5]: 724 ×10⁻⁶ cm/s

Structure (SMILES): CN1CC[C@]23c4c5ccc(O)c4O[C@H]2[C@@H](O)CC[C@H]3[C@H]1C5 [Dihydromorphine, dihydromorphine]
- Permeability (Log Pe, cm/sec) Porcine polar brain lipid (PBL) [1]: −1.76 ± 0.09 cm/sec
- Papp [5]: 1510 ×10⁻⁶ cm/s
- Ability to cross the dodecane barrier [2]: unable to cross the barrier

Structure (SMILES): CN(C)C(=O)C(CCN1CCC(O)(c2ccc(Cl)cc2)CC1)(c1ccccc1)c1ccccc1 [Loperamide, loperamide]
- Permeability (Log Pe, cm/sec) Microvessel lipid + cholesterol (MVLC) [3]: −1.97 ± 0.08 cm/sec

Structure (SMILES): CN(C)C[C@H]1CCCC[C@]1(O)c1cccc(O)c1 [O-desmethyl tramadol, O-desmethyltramadol]
- Permeability (Log Pe, cm/sec) Porcine polar brain lipid (PBL) [1]: −0.97 ± 0.04 cm/sec

Structure (SMILES): COc1ccc2c3c1O[C@H]1C(=O)CC[C@@]4(O)[C@@H](C2)N(C)CC[C@]314 [Oxycodone, oxycodone]
- Ability to cross the dodecane barrier [2]: unable to cross the barrier

Structure (SMILES): COc1cccc(C2(O)CCCCC2CN(C)C)c1 (centres unmarked) [Tramadol]
- Papp [6]: 117 ×10⁻⁶ cm/s
